Data reported in PMC5724969 (Nature chemical biology, 2017).
Read-outs that look alike come from different tables or passages of the source.

System: chPylRS (chimeric pyrrolysyl-tRNA synthetase)
Assay: […]-tRNA aminoacylation assay, nuclease P1/TLC
Type: biochemical, Methanosarcina mazei; Methanosarcina barkeri
Conditions: tRNA(Pyl), 10 mM MgCl2, pH 7.2

Km (read-out: KM ^ATP, BocK as amino acid) | Compound | Km (read-out: KM^BocK, ATP)
 | CC(C)(C)OC(=O)NCCCC[C@H](N)C(=O)O [compound 2, BocK] | 1030 ± 50 µM
2.54 ± 0.16 µM | Nc1ncnc2c1ncn2[C@@H]1O[C@H](COP(=O)(O)OP(=O)(O)OP(=O)(O)O)[C@@H](O)[C@H]1O [ATP] | 
